Key:
human CB1 receptor [1] = target: T1, human CB1 receptor (Homo sapiens, UniProt P21554); experiment: bioSensAll β-arrestin2 plasma membrane translocation (+GRK2) BRET biosensor assay in HEK293 cells transfected with hCB1; test compound added before EC75-80 of agonist CP55,940 (100 nM); type: cell-based; conditions: βArrestin2 (+GRK2) BRET biosensor, vs CP55,940 100 nM (EC75-80), read-out: CB1 wt βarr2 IC50
T1 construct: expressed in transfected cells; host or cells: HEK293
Protocol: (§1) Using polyethylenimine (PEI) transfection agent, HEK293 cells were transfected in suspension with the human CB1 receptor and one of the following bioSensAll® assays: GAPL-Gi2, or β-arrestin plasma membrane (PM) translocation biosensor (+GRK2). Cells were directly seeded in 96-well plates immediately following transfection.
(§2) Cells were incubated with coelenterazine (luciferase substrate) and different test compounds prior to the measurement of BRET signals.
(§3) Used in this project are i) Gα plasma membrane (GAPL) biosensors and the ii) β-arrestin plasma membrane translocation biosensor.
ii) The multimolecular β-arrestin membrane recruitment biosensors allow for real-time spatio-temporal monitoring of β-arrestin 1 and β-arrestin 2 following GPCR activation. Specifically, these β-arrestin sensors were designed to detect the recruitment of proteins to the plasma membrane (β-arrestin PM) with localization to compartment resulting in an increased BRET signal.
(§4) HEK293 cells were maintained in Dulbecco's Modified Eagle Medium (DMEM) (Wisent; cat #319-030-CL: without sodium pyruvate, with 4.5 g/L glucose, without L-glutamine) supplemented with 1% penicillin-streptomycin (Wisent; cat #450-201-EL) and 2 or 10% fetal bovine serum (Wisent cat #090150).
(§5) HEK293 cells were co-transfected with hCB1 and one of the above-listed bioSensAll® assays. For each transfection condition: • the total amount of transfected DNA was kept constant at 1 μg per mL of cell culture to be transfected; whenever necessary, salmon sperm DNA (Invitrogen, cat #15632011) was used as ‘carrier’ DNA to supplement plasmid DNA (i.e., biosensor and receptor); • the PEI (polyethylenimine 25 kDa linear, PolyScience, cat #23966) to DNA ratio (ug:ug) was fixed at 3:1.
(§6) Transfections were carried out as follows: • DNA and PEI were first diluted separately in 150 mM NaCl. The volume of the diluent in each tube corresponds to 5% of the cell culture volume to be transfected. • Once DNA and PEI were diluted, the PEI-containing solution was added to the DNA solution and the DNA/PEI mixture immediately vortexed for 5 seconds. • The DNA/PEI mixture was incubated for at least 20 minutes at room temperature to allow for the formation of DNA/PEI complexes. • During the incubation, HEK293 cells were detached, counted and re-suspended in culture medium (composition specified above). • At the end of the incubation period, the DNA/PEI mixture was added to the cells. • Cells were finally distributed in 96-well plates (White Opaque 96-well/Microplates, Greiner, cat #655083 or CulturPlate-96, White Opaque 96-well Microplate, PerkinElmer, cat #6005688) at a density of 30,000 cells per well.
(§7) At 48 hours post-transfection: • Using 450-Select TS Biotek plate washer, culture medium was aspirated and replaced with 100 μL of Hank's Balanced Salt Solution buffer (HBSS) (Wisent, cat #319-067CL: without red phenol; with sodium bicarbonate, with calcium and magnesium, with HEPES) per well. • Plates were then incubated (equilibrated) at 37° C., 5% CO2 for 60 minutes. • Increasing doses of test compounds were then added to each well using the HP D300e digital dispenser (Tecan). All compounds were assayed at the following 12 concentrations (in nM) with each biosensor: 0.000, 0.013, 0.040, 0.120, 0.320, 0.960, 2.80, 8.00, 24.0, 70.0, 205 and 600. • Three to 5 minutes later, an assay-specific effective concentration (EC)75-80 of agonist CP55,940 (i.e., 0.1 nM and 100 nM for G[…]i2-GAPL or […]Arrestin2 (+GRK2) assay, respectively) was added to wells previously injected with test compound (i.e., previous step 3). […]

human CB1 receptor [2] = target: T1, human CB1 receptor; experiment: bioSensAll GAPL-Gi2 BRET biosensor assay in HEK293 cells transfected with hCB1; test compound added before EC75-80 of agonist CP55,940 (0.1 nM); type: cell-based; conditions: vs CP55,940 0.1 nM (EC75-80), read-out: CB1 wt Gi2 IC50
Protocol: as §1, §2, §3
i) GAPL sensors are used to monitor the activation of heterotrimeric G proteins at the plasma membrane upon receptor stimulation. Specifically, these multimolecular BRET sensors detect the plasma membrane recruitment of proteins that interact with active Gα subunits in a G protein family-selective manner. G protein activation following receptor stimulation generally leads to an increase in the BRET signal.
as §4, §5, §6, §7

T1 sequence (P21554 whole entry): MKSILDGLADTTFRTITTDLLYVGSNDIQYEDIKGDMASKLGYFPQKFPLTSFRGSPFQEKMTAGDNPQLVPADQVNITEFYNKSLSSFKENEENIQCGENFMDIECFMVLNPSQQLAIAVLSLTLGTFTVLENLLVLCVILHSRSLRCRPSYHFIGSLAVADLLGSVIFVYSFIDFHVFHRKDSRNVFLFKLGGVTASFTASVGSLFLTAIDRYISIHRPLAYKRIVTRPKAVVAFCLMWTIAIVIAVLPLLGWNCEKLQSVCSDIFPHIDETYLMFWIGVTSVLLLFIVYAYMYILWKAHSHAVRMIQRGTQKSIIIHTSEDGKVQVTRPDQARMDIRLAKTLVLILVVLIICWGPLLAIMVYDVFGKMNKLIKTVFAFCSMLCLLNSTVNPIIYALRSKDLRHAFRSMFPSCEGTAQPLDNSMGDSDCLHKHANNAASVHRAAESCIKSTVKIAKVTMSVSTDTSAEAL

SMILES: COCCOc1nc(N2CCC(C)(C(N)=O)CC2)c2nc(-c3ccccc3Cl)n(-c3ccc(Cl)cc3)c2n1 [Compound 10, 1-[8-(2-chlorophenyl)-9-(4-chlorophenyl)-2-(2-methoxyethoxy)purin-6-yl]-4-methyl-piperidine-4-carboxamide]
- IC50 (human CB1 receptor [1]): 6.8 nM
- IC50 (human CB1 receptor [2]): 1.47 nM

SMILES: CC1(C(N)=O)CCN(c2nc(NCCS(C)(=O)=O)nc3c2nc(-c2ccccc2Cl)n3-c2ccc(Cl)cc2)CC1 [Compound 11, 1-[8-(2-chlorophenyl)-9-(4-chlorophenyl)-2-(2-methylsulfonylethylamino)purin-6-yl]-4-methyl-piperidine-4-carboxamide]
- IC50 (human CB1 receptor [1]): 30.1 nM
- IC50 (human CB1 receptor [2]): 2.01 nM

SMILES: CC1(C(N)=O)CCN(c2nc(N(CCO)Cc3ccccc3)nc3c2nc(-c2ccccc2Cl)n3-c2ccc(Cl)cc2)CC1 [Compound 12, 1-[2-[benzyl(2-hydroxyethyl)amino]-8-(2-chlorophenyl)-9-(4-chlorophenyl)purin-6-yl]-4-methyl-piperidine-4-carboxamide]
- IC50 (human CB1 receptor [1]): 3.09 nM
- IC50 (human CB1 receptor [2]): 0.5 nM

SMILES: CC1(C(N)=O)CCN(c2nc(N3CCC[C@@H]3CO)nc3c2nc(-c2ccccc2Cl)n3-c2ccc(Cl)cc2)CC1 [Compound 13, 1-[8-(2-chlorophenyl)-9-(4-chlorophenyl)-2-[(2R)-2-(hydroxymethyl)pyrrolidin-1-yl]purin-6-yl]-4-methyl-piperidine-4-carboxamide]
- IC50 (human CB1 receptor [1]): > 5000 nM
- IC50 (human CB1 receptor [2]): 7.02 nM

SMILES: CC1(C(N)=O)CCN(c2nc(N3C[C@H]4CCC[C@H]4C3)nc3c2nc(-c2ccccc2Cl)n3-c2ccc(Cl)cc2)CC1 [Compound 14, 1-[2-[(3aS,6aR)-3,3a,4,5,6,6a-hexahydro-1H-cyclopenta[c]pyrrol-2-yl]-8-(2-chlorophenyl)-9-(4-chlorophenyl)purin-6-yl]-4-methyl-piperidine-4-carboxamide]
- IC50 (human CB1 receptor [1]): 34.5 nM
- IC50 (human CB1 receptor [2]): 6.5 nM

SMILES: CC1(C(N)=O)CCN(c2nc(N3C[C@H]4C[C@H]4C3)nc3c2nc(-c2ccccc2Cl)n3-c2ccc(Cl)cc2)CC1 [Compound 15, 1-[2-[(1R,5S)-3-azabicyclo[3.1.0]hexan-3-yl]-8-(2-chlorophenyl)-9-(4-chlorophenyl)purin-6-yl]-4-methyl-piperidine-4-carboxamide]
- IC50 (human CB1 receptor [1]): 8.03 nM
- IC50 (human CB1 receptor [2]): 1.29 nM

SMILES: CC1(C(N)=O)CCN(c2nc(N3CCS(=O)(=O)CC3)nc3c2nc(-c2ccccc2Cl)n3-c2ccc(Cl)cc2)CC1 [Compound 16, 1-[8-(2-chlorophenyl)-9-(4-chlorophenyl)-2-(1,1-dioxo-1,4-thiazinan-4-yl)purin-6-yl]-4-methyl-piperidine-4-carboxamide]
- IC50 (human CB1 receptor [1]): 1.51 nM
- IC50 (human CB1 receptor [2]): 0.315 nM

SMILES: CC1(C(N)=O)CCN(c2nc(OC3CCCOC3)nc3c2nc(-c2ccccc2Cl)n3-c2ccc(Cl)cc2)CC1 (stereo not shown) [Compound 17, 1-[8-(2-chlorophenyl)-9-(4-chlorophenyl)-2-tetrahydropyran-3-yloxy-purin-6-yl]-4-methyl-piperidine-4-carboxamide]
- IC50 (human CB1 receptor [1]): 2.39 nM
- IC50 (human CB1 receptor [2]): 0.617 nM

SMILES: CC(=O)NC(=N)Nc1nc(N2CCC(C)(C(N)=O)CC2)c2nc(-c3ccccc3Cl)n(-c3ccc(Cl)cc3)c2n1 [Compound 18, 1-[2-[(N-acetylcarbamimidoyl)amino]-8-(2-chlorophenyl)-9-(4-chlorophenyl)purin-6-yl]-4-methyl-piperidine-4-carboxamide]
- IC50 (human CB1 receptor [1]): 11.3 nM
- IC50 (human CB1 receptor [2]): 3.73 nM

SMILES: CN(CCO)c1nc(N2CCC(C)(C(N)=O)CC2)c2nc(-c3ccccc3Cl)n(-c3ccc(Cl)cc3)c2n1 [Compound 19, 1-[8-(2-chlorophenyl)-9-(4-chlorophenyl)-2-[2-hydroxyethyl(methyl)amino]purin-6-yl]-4-methyl-piperidine-4-carboxamide]
- IC50 (human CB1 receptor [1]): 1.07 nM
- IC50 (human CB1 receptor [2]): 0.187 nM

SMILES: CC1(C(N)=O)CCN(c2nc(N3CCC[C@H]3CO)nc3c2nc(-c2ccccc2Cl)n3-c2ccc(Cl)cc2)CC1 [Compound 20, 1-[8-(2-chlorophenyl)-9-(4-chlorophenyl)-2-[(2S)-2-(hydroxymethyl)pyrrolidin-1-yl]purin-6-yl]-4-methyl-piperidine-4-carboxamide]
- IC50 (human CB1 receptor [1]): 0.568 nM
- IC50 (human CB1 receptor [2]): 0.255 nM

SMILES: Cc1cnn(-c2nc(N3CCC(C(F)(F)F)CC3)c3nc(-c4ccccc4Cl)n(-c4ccc(Cl)cc4)c3n2)c1 [Compound 21, 8-(2-chlorophenyl)-9-(4-chlorophenyl)-2-(4-methylpyrazol-1-yl)-6-[4-(trifluoromethyl)-1-piperidyl]purine]
- IC50 (human CB1 receptor [1]): 28.9 nM
- IC50 (human CB1 receptor [2]): 4.37 nM

SMILES: Cc1ccn(-c2nc(N3CCC(C(F)(F)F)CC3)c3nc(-c4ccccc4Cl)n(-c4ccc(Cl)cc4)c3n2)n1 [Compound 22, 8-(2-chlorophenyl)-9-(4-chlorophenyl)-2-(3-methylpyrazol-1-yl)-6-[4-(trifluoromethyl)-1-piperidyl]purine]
- IC50 (human CB1 receptor [1]): 11.3 nM
- IC50 (human CB1 receptor [2]): 1.33 nM

SMILES: OCCCOc1nc(N2CCC(C(F)(F)F)CC2)c2nc(-c3ccccc3Cl)n(-c3ccc(Cl)cc3)c2n1 [Compound 23, 3-[8-(2-chlorophenyl)-9-(4-chlorophenyl)-6-[4-(trifluoromethyl)-1-piperidyl]purin-2-yl]oxypropan-1-ol]
- IC50 (human CB1 receptor [1]): 4.36 nM
- IC50 (human CB1 receptor [2]): 0.846 nM

SMILES: COCCOc1nc(N2CCC(C(F)(F)F)CC2)c2nc(-c3ccccc3Cl)n(-c3ccc(Cl)cc3)c2n1 [Compound 27, 8-(2-chlorophenyl)-9-(4-chlorophenyl)-2-(2-methoxyethoxy)-6-[4-(trifluoromethyl)-1-piperidyl]purine]
- IC50 (human CB1 receptor [1]): 10.2 nM
- IC50 (human CB1 receptor [2]): 1.5 nM

SMILES: CS(=O)(=O)CCNc1nc(N2CCC(C(F)(F)F)CC2)c2nc(-c3ccccc3Cl)n(-c3ccc(Cl)cc3)c2n1 [Compound 28, 8-(2-chlorophenyl)-9-(4-chlorophenyl)-N-(2-methylsulfonylethyl)-6-[4-(trifluoromethyl)-1-piperidyl]purin-2-amine]
- IC50 (human CB1 receptor [1]): 12.2 nM
- IC50 (human CB1 receptor [2]): 1.02 nM

SMILES: OC[C@H]1CCCN1c1nc(N2CCC(C(F)(F)F)CC2)c2nc(-c3ccccc3Cl)n(-c3ccc(Cl)cc3)c2n1 [Compound 29, [(2R)-1-[8-(2-chlorophenyl)-9-(4-chlorophenyl)-6-[4-(trifluoromethyl)-1-piperidyl]purin-2-yl]pyrrolidin-2-yl]methanol]
- IC50 (human CB1 receptor [1]): > 5000 nM
- IC50 (human CB1 receptor [2]): 6.92 nM

SMILES: FC(F)(F)C1CCN(c2nc(N3C[C@H]4CCC[C@H]4C3)nc3c2nc(-c2ccccc2Cl)n3-c2ccc(Cl)cc2)CC1 [Compound 30, 2-[(3aS,6aR)-3,3a,4,5,6,6a-hexahydro-1H-cyclopenta[c]pyrrol-2-yl]-8-(2-chlorophenyl)-9-(4-chlorophenyl)-6-[4-(trifluoromethyl)-1-piperidyl]purine]
- IC50 (human CB1 receptor [1]): 60 nM
- IC50 (human CB1 receptor [2]): 14.4 nM

SMILES: FC(F)(F)C1CCN(c2nc(N3C[C@H]4C[C@H]4C3)nc3c2nc(-c2ccccc2Cl)n3-c2ccc(Cl)cc2)CC1 [Compound 31, 2-[(1R,5S)-3-azabicyclo[3.1.0]hexan-3-yl]-8-(2-chlorophenyl)-9-(4-chlorophenyl)-6-[4-(trifluoromethyl)-1-piperidyl]purine]
- IC50 (human CB1 receptor [1]): 21.8 nM
- IC50 (human CB1 receptor [2]): 2.76 nM

SMILES: O=S1(=O)CCN(c2nc(N3CCC(C(F)(F)F)CC3)c3nc(-c4ccccc4Cl)n(-c4ccc(Cl)cc4)c3n2)CC1 [Compound 32, 4-[8-(2-chlorophenyl)-9-(4-chlorophenyl)-6-[4-(trifluoromethyl)-1-piperidyl]purin-2-yl]-1,4-thiazinane 1,1-dioxide]
- IC50 (human CB1 receptor [1]): 3.02 nM
- IC50 (human CB1 receptor [2]): 0.509 nM
